Patent US20220227761A1, “OXOACRIDINYL ACETIC ACID DERIVATIVES AND METHODS OF USE” (STINGTHERA, INC., priority 2019, published 2022)

Legend:
hSTING-R232 (aa140-379) = hSTING-R232 (aa140-379) (Homo sapiens, UniProt Q86WV6, H232R); assay: STING differential scanning fluorimetry (DSF) assay, hSTING WT; details: shift in melting temperature apo vs ligand-bound
Description: A STING DSF assay was performed to determine protein thermostability shift in response to small molecule ligand binding. A STING thermnostability shift assay based on differential scanning fluorimetry was used to measure (1) the net shift in melting temperature (ΔTm) between the apo and ligand-bound states of the STING protein and (2) the concentration of the thermal denaturation transition (EC50) as a surrogate measure of binding affinity (Kd). […] Protein in assay buffer was transferred to a 384 well plate and incubated with the hydrophobic fluorescent dye SYBR Orange. A temperature ramp was applied to the plate and the resulting dye fluorescence was plotted as a function of temperature. The first derivative of this function (dF/dT) was then used to extrapolate the melting temperature of the protein at various concentrations of compound and determine the thermal denaturation profile of a protein/compound complex.
5 μM purified Target STING Protein • 3. 8 μM Sypro Orange Dye • 4. Buffer: 100 mM NaCl, 30 mM HEPES, pH 7.5 • 5. Thermal Ramp: 0.5° C./min • 6. <1% DMSO • 7. 11 point, 2 fold dilution, duplicate, 300 μM high concentrations • 8.

[1] = target: human STING protein (140-379), WT (Homo sapiens, UniProt Q86WV6, H232R); assay: Radiometric filtration binding competition assay (FBA), hSTING-WT; details: WT-hSWAT IC50 (μM), WT_FBA_HIS-SUMO-hSWAT; wild-type human STING; competition with [H3] 2′3′cGAMP
[2] = system: STING protein; IRF/IFN signaling in THP-1 R232 cells; assay: Cell based reporter assay, THP-1 R232 IRF-luc; details: Homo sapiens, THP1-dual-KI R232 cells, IRF luciferase reporter; for Emax: maximum measured activity, read-out: THP 1-dual-KI R232_IRF(Luciferase)_Activity Maximum measured (%); for IC50: read-out: THP 1-dual-KI R232_IRF(Luciferase) IC50
Description: Cell reporter assays were developed to measure the ability of compounds of the application to activate the STING protein and activate both IRF/IFN and the NFkB signaling pathways in the myeloid derived cell line THP-1, which is commercially available from several suppliers. Briefly, THP-1 monocytes were transfected and selected for stable integration of 2 reporter constructs. Clones incorporating stably integrated vectors were further selected by antibiotic resistance to blastocidin and zeocin. The reporter constructs included: (1) firefly luciferase reporter gene under the control of an ISG54 promoter fused to five interferon (IFN)-stimulated response elements to measure IRF transcription factor binding activity and (2) secreted embryonic alkaline phosphatase reporter gene under transcription control of an IFN-beta minimal promoter fused to 5 copies of the NFkB consensus transcriptional response element and 3 copies of the c-Rel binding site.
The resulting THP-1 cell line was further modified to incorporate 3 amino acid point mutations (H71R A230G Q293R). This modification of the native TMEM173 gene in THP-1 cells (HAQ) was designed to produce a cell reporter that expressed the most common allelic variant in the human population (THP-1 R232, available from InvivoGen). Alternatively, the TMEM173 gene was knocked out to provide a congenic control to counter-screen for compound activation that was independent of the STING protein (THP-1 STING KO).
Once cell lines were established, reporter assay protocols were developed and optimized to screen small molecule compounds for agonist activity. Assay optimization for efficacy and Z′ value included titration of the following parameters:
• 1. Cell pre-activation with PMA • 2. Cell seeding density • 3. DMSO tolerance • 4. Media selection • 5. FBS concentration • 6. Incubation time • 7. Co-Assessment of cell viability by CTG assay • 8. Appropriate HPE and ZPE controls • 9. Dose Response Titration
• 1. No pre-activation with PMA • 2. 5×10^4 cells/well in 96 well plate format • 3. <0.5% DMSO • 4. RPMI 1640+2.5 mg/ml glucose • 5. 10% FBS • 6. 14-18 hr incubation • 7. Cell Titer Glo reagent (Promega) following supernatant removal • 8. […] 8 point, 2 fold, duplicate starting at 150 μM

Chain of human STING protein (140-379), WT (Q86WV6 140-379 H232R): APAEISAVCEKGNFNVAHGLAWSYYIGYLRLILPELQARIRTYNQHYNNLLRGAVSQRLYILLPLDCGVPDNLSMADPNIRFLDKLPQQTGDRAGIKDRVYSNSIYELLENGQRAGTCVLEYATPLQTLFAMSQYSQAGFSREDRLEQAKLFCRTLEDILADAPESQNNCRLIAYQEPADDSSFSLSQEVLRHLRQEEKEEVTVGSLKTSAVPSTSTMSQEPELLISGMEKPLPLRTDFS
Chain of hSTING-R232 (aa140-379) (Q86WV6 140-379 H232R): as above

SMILES | WT_DSF_hSWAT Tm Shift (° C.) (hSTING-R232 (aa140-379)) | IC50 [1] [µM] | Emax [2] [%] | IC50 [2] [µM]
CC/C=C(\CC)c1ccc2c(=O)c3ccc(Cl)c(OC)c3n(CC(=O)O)c2c1 [Compound 18] | D (“D” >7° C.) | 20 to 100 | > 50 | < 50
Cc1ccc2c(=O)c3ccc(Cl)c(N(C)C)c3n(CC(=O)NS(=O)(=O)C3CC3)c2c1 [Compound 44] | D (“D” >7° C.) | 20 to 100 |  | 
CN(C)c1c(Cl)ccc2c(=O)c3cc(Cl)c(C(C)(C)C)cc3n(CC(=O)O)c12 [Compound 88] | D (“D” >7° C.) | < 20 | > 50 | < 50
CN(C)c1c(Cl)ccc2c(=O)c3ccc(-c4ccnnc4)cc3n(CC(=O)O)c12 [Compound 71] | D (“D” >7° C.) | 20 to 100 | > 50 | < 50
CCc1c(Cl)ccc2c(=O)c3ccc(C)cc3n(CC(=O)O)c12 [Compound 48] | D (“D” >7° C.) | 20 to 100 |  | 
CN(C)c1c(Cl)ccc2c(=O)c3ccc(Nc4ccncc4)cc3n(CC(=O)O)c12 [Compound 81] | D (“D” >7° C.) | < 20 | > 50 | < 50
CN(C)c1c(Cl)ccc2c(=O)c3ccc(C4=CCOC4)cc3n(CC(=O)O)c12 [Compound 16] | D (“D” >7° C.) | < 20 | > 50 | < 50
CN(C)c1c(Cl)ccc2c(=O)c3ccc(-c4cccnc4)cc3n(CC(=O)O)c12 [Compound 9] | C (“C” = 2-7° C.) | < 20 | > 50 | < 50
CN(C)c1c(Cl)ccc2c(=O)c3cc(Br)ccc3n(CC(=O)O)c12 [Compound 29] | B (“B” = 0-2° C.) | > 300 | > 50 | < 50
Cc1ccc2c(=O)c3ccc(Cl)c(C(C)C)c3n(CC(=O)O)c2c1 [Compound 46] | D (“D” >7° C.) | > 300 | 5 to 25 | > 150
CN(C)c1c(Cl)ccc2c(=O)c3cc(Cl)c(Nc4ccccc4)cc3n(CC(=O)O)c12 [Compound 91] | D (“D” >7° C.) | < 20 | > 50 | < 50
COc1c(Cl)ccc2c(=O)c3ccc(Br)cc3n(CC(=O)O)c12 [Compound 66] | C (“C” = 2-7° C.) | 100 to 300 |  | 
COc1c(Cl)ccc2c(=O)c3ccc(C4=CCNC4)cc3n(CC(=O)O)c12 [Compound 40] | C (“C” = 2-7° C.) | > 300 |  | 
CN(C)c1c(Cl)ccc2c(=O)c3ccc(Nc4cccnc4)cc3n(CC(=O)O)c12 [Compound 80] | D (“D” >7° C.) | < 20 | > 50 | < 50
CN(C)c1c(Cl)ccc2c(=O)c3ccc(-c4cc[nH]c4)cc3n(CC(=O)O)c12 [Compound 14] | D (“D” >7° C.) | < 20 | > 50 | < 50
CN(C)c1c(Cl)ccc2c(=O)c3ccc(C4(C#N)CC4)cc3n(CC(=O)O)c12 [Compound 84] | D (“D” >7° C.) | 20 to 100 | > 50 | < 50
CN(C)c1c(Cl)ccc2c(=O)c3ccc(-c4ccccc4)cc3n(CC(=O)O)c12 [Compound 11] | D (“D” >7° C.) | < 20 | > 50 | < 50

SMILES | WT_DSF_hSWAT Tm Shift (° C.) (hSTING-R232 (aa140-379)) | IC50 [1] [µM] | Emax [2] [%] | IC50 [2] [µM]
CN(C)c1c(Cl)ccc2c(=O)c3cc(Cl)c(Br)cc3n(CC(=O)O)c12 [Compound 3] | C (“C” = 2-7° C.) | 20 to 100 | > 50 | < 50
COc1c(Cl)ccc2c(=O)c3cccc(OCCO)c3n(CC(=O)O)c12 [Compound 61] | B (“B” = 0-2° C.) | > 300 | 5 to 25 | > 150
CCc1cc2c(cc1Cl)c(=O)c1ccc(Cl)c(N(C)C)c1n2CC(=O)O [Compound 93] | C (“C” = 2-7° C.) |  | > 50 | < 50
CCc1cccc2c(=O)c3ccc(C)cc3n(CC(=O)O)c12 [Compound 38] | B (“B” = 0-2° C.) | > 300 |  | 
CN(C)c1c(Cl)ccc2c(=O)c3ccc(C4(C)CC4)cc3n(CC(=O)O)c12 [Compound 85] |  | < 20 | > 50 | < 50
CN(C)c1c(Cl)ccc2c(=O)c3ccc(C(C)(C)C)cc3n(CC(=O)NS(=O)(=O)C3CC3)c12 [Compound 42] | D (“D” >7° C.) | < 20 |  | 
COc1c(Cl)ccc2c(=O)c3ccc(C4=CCN(C(=O)OC(C)(C)C)C4)cc3n(CC(=O)O)c12 [Compound 41] | D (“D” >7° C.) | 20 to 100 |  | 
Cc1noc(C)c1-c1ccc2c(=O)c3ccc(Cl)c(N(C)C)c3n(CC(=O)O)c2c1 [Compound 12] | C (“C” = 2-7° C.) | 20 to 100 |  | 
Cc1ccc2c(=O)c3ccc(Cl)c(N(C)C)c3n(CC(=O)NC#N)c2c1 [Compound 45] | C (“C” = 2-7° C.) | 20 to 100 |  | 
CN(C)c1c(Cl)ccc2c(=O)c3ccc(C(C)(C)C)cc3n(CC(=O)NC#N)c12 [Compound 43] | D (“D” >7° C.) | < 20 |  | 
C=Cc1c(Cl)ccc2c(=O)c3ccc(C)cc3n(CC(=O)O)c12 [Compound 49] | D (“D” >7° C.) | 20 to 100 |  | 
COc1c(Cl)ccc2c(=O)c3ccc(C4=CCC(N5CCN(C)CC5)CC4)cc3n(CC(=O)O)c12 (stereo not drawn) [Compound 28] | C (“C” = 2-7° C.) | 20 to 100 |  | 
COc1c(Cl)ccc2c(=O)c3ccc(C4CCC(N5CCN(C)CC5)CC4)cc3n(CC(=O)O)c12 (stereo not drawn) [Compound 27] | C (“C” = 2-7° C.) | 20 to 100 |  | 
CN(C)c1c(Cl)ccc2c(=O)c3ccc(-c4ccco4)cc3n(CC(=O)O)c12 [Compound 50] | D (“D” >7° C.) | 20 to 100 |  | 
Cc1ccc2c(=O)c3ccc(C(F)(F)F)c(N(C)C)c3n(CC(=O)O)c2c1 [Compound 26] | B (“B” = 0-2° C.) | > 300 |  | 
Cc1cc2c(cc1Cl)c(=O)c1ccc(Cl)c(N(C)C)c1n2CC(=O)O [Compound 33] | C (“C” = 2-7° C.) |  | > 50 | < 50
CN(C)c1c(Cl)ccc2c(=O)c3ccc(-c4cnoc4)cc3n(CC(=O)O)c12 [Compound 13] | D (“D” >7° C.) |  | > 50 | < 50
